Source: ChEMBL document CHEMBL1201862, “PubChem BioAssay data set” (2004)
Active and inactive are the calls of the source.

Assays:
[1] = target: G-protein coupled receptor 55 (Homo sapiens, UniProt Q9Y2T6); assay: GPR55 antagonists blocking LPI-driven arrestin recruitment, primary screen, imaging, U2OS, beta-arrestin-GFP, LPI agonist (AID 2013); format: functional;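 further: antagonist potency measured as reduced agonist-driven arrestin aggregation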
[2] = target: T1, Polyadenylate-binding protein 1 (Homo sapiens, UniProt P11940); assay: PABP1 MLLE–PAM2 binding inhibitor potency, dose response, biochemical, fluorescence polarization, FITC-PAM2 peptide (AID 602259); format: functional; conditions: read-out: IC50_Mean
Large T antigen = Large T antigen (Simian virus 40, UniProt P03070); format: functional, Betapolyomavirus macacae;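 further: Confirmatory-stage PubChem screen for compounds that inhibit SV40 T antigen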
[3] = target: FAD-linked sulfhydryl oxidase ALR (Homo sapiens, UniProt P55789); assay: inhibitors of human ALR sulfhydryl oxidase, dose response, biochemical, H2O2 detection, luminescence, cherry-pick (AID 493248)
[4] = target: T1, Polyadenylate-binding protein 1; assay: PABP1 MLLE–PAM2 interaction inhibitors, dose response, miRNA deadenylation inhibitor project, biochemical, fluorescence polarization, Cy5-PAM2 peptide, secondary (AID 602260); format: functional; conditions: read-out: IC50_Mean
[5] = cytotoxicity toward NIH3T3 fibroblasts, dose response, counter-screen, cell-based, ATP luminescence, mouse fibroblasts (AID 2010); format: functional;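 further: cells exposed to compound for about 90 hours before reading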
cells = format: functional
[6] = THP-1 cell cytotoxicity, dose response, cytotoxicity control for non-replicating M. tuberculosis project (AID 489025); format: functional
[7] = inhibitors of intracellular T. cruzi replication, confirmation, NIH3T3 host cells, beta-gal luminescence (AID 2044); format: functional, cell-based;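 further: intracellular parasites grown in NIH/3T3 mouse fibroblasts as host cells; luminescent beta-galactosidase reporter signal from transgenic T. cruzi replicating inside host cells; inhibitors lower the luminescence signal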
[8] = Vero E6 cell cytotoxicity, dose response, cytotoxicity control for non-replicating M. tuberculosis project, secondary assay (AID 492998); format: functional, VeroE6; conditions: Vero C1008
[9] = HepG2 cell cytotoxicity, dose response, cytotoxicity control for non-replicating M. tuberculosis project (AID 489018); format: functional; conditions: Mycobacterium tuberculosis
[10] = target: DNA dC->dU-editing enzyme APOBEC-3G (Homo sapiens, UniProt Q9HC16); assay: Dose Response confirmation of small molecule APOBEC3G DNA Deaminase Inhibitors via a fluorescence-based single-stranded DNA deaminase assay. [Related pubchem assays (depositor defined):AID493012, AID493028]; format: functional
[11] = target: T2, Mannose-6-phosphate isomerase (Homo sapiens, UniProt P34949); assay: PMI enzyme inhibitors, confirmation, biochemical, fluorescence intensity (AID 1535)
T2 sequence (P34949 whole entry): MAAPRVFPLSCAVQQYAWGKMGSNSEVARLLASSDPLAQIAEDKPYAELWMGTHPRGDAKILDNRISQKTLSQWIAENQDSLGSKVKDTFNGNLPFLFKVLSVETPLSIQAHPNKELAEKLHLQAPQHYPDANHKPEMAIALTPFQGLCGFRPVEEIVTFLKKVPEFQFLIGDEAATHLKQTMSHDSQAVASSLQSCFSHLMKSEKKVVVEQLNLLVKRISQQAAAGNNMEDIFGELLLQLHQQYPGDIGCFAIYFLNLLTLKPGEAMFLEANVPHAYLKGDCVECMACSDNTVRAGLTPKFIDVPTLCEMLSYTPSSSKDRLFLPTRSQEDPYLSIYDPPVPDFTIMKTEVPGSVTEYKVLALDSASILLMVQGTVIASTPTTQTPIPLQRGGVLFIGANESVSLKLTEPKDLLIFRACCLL

[12] = target: T3, Rac GTPase-activating protein 1 (Homo sapiens, UniProt Q9H0H5); assay: MgcRacGAP GTPase-activating activity inhibitors, confirmation, biochemical, ADP Hunter fluorescence, primary and confirmatory (AID 624330); format: functional
T3 sequence (Q9H0H5 whole entry): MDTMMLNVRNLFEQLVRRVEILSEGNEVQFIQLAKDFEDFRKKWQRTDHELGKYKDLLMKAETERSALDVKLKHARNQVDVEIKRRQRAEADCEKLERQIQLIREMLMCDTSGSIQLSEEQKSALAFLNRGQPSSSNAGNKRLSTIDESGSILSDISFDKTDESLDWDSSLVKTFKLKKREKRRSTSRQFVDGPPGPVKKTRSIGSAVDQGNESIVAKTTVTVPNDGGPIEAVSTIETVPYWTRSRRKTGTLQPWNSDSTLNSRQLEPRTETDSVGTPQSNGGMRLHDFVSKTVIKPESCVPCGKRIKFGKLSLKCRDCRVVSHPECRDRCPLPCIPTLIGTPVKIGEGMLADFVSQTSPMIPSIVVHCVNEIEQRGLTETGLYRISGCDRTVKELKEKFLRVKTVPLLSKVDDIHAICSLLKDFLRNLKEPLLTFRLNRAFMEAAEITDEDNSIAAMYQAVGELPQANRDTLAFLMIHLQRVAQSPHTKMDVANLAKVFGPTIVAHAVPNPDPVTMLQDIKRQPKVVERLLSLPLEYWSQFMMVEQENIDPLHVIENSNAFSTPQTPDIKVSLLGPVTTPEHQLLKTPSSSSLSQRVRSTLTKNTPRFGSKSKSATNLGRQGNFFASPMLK

Phosphomannomutase 2 = Phosphomannomutase 2 (Homo sapiens, UniProt O15305); assay: Counter screen SAR assay for PMM2 inhibitors via a fluorescence intensity assay. [Related pubchem assays (depositor defined):AID1545, AID1574]
[13] = Luminescence Cell-Based Dose Retest to Confirm Inhibitors of Cancer Stem Cells. [Related pubchem assays (depositor defined):AID2717, AID2721]; format: functional; conditions: Homo sapiens
Beta-galactosidase = Beta-galactosidase (Escherichia coli, UniProt Q8VNN2); assay: beta-galactosidase enzyme inhibitors and activators, dose response, artefact control for CCR6 antagonist project, biochemical, E. coli enzyme, set 3 (AID 504712); format: functional
[14] = Shn3 3'UTR reporter inhibitors, dose response, cell-based, Clone20 osteoblasts, firefly luciferase, cherry-picked (AID 624132); format: functional;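 further: firefly luciferase luminescence from reporter carrying the Shn3 3'UTR in osteoblasts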
[15] = inhibitors of control Renilla luciferase reporter, dose response, counter-screen for Shn3 3'UTR targeting project, Clone20-Shn3RL cells, dual-Glo, cherry-pick, set 2 (AID 720724); format: functional, cell-based; conditions: Dual-Go Shn3RL
[16] = target: Heat shock protein HSP 90-alpha (Homo sapiens, UniProt P07900); format: functional, organism-based
[17] = target: Glucose-6-phosphate 1-dehydrogenase (Homo sapiens, UniProt P11413); assay: human G6PD enzyme inhibitors, dose response, selectivity assay for P. falciparum G6PD inhibitor project, biochemical, fluorescence (AID 504792); format: functional
[18] = HepG2 cell cytotoxicity, dose response, cytotoxicity control for Shn3 inhibitor project, CellTiter-Glo, cherry-picked (AID 624134); format: functional, cell-based
[19] = reduction of Shn3 3'UTR firefly luciferase signal, dose response, Schnurri-3 inhibitor project, cell-based, Clone20 osteoblasts, cherry-pick, set 2 (AID 720490); format: functional;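 further: actives lower the luminescence signal as inhibitors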
[20] = control 3'UTR Renilla luciferase suppression, dose response, counter-screen for Shn3 inhibitor project, cell-based, Clone20-Shn3RL, cherry-picked (AID 624133); format: functional
CAAX prenyl protease 1 = CAAX prenyl protease 1 (Saccharomyces cerevisiae S288c, UniProt P47154); assay: Ste24 protease inhibitors, dose response, biochemical, S. cerevisiae, plate reader, cherry-pick (AID 488815)
H9c2 = assay: cells; format: functional, cell-based; conditions: Rattus norvegicus, H9c2, Myocardium;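 further: confirmatory concentration-response retest of ultra-high-throughput screening hits for modulation of myocardial damage; cell death induced by hydrogen peroxide oxidative stress; compound pretreatment for 60 min then peroxide exposure for 2 h; potency is for protecting the cells against peroxide damage rather than for killing them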
HEK293 = assay: inhibitors of LMP1-driven NF-kB reporter, dose response, cell-based, HEK293, luciferase, cherry-pick (AID 588343); format: functional; conditions: Homo sapiens
Troponin, cardiac muscle = Troponin, cardiac muscle (Homo sapiens, UniProt P19429+P45379+P63316); assay: Fluorescence-based biochemical high throughput dose response assay for activators of the calcium sensitivity of cardiac Regulated Thin Filaments (RTF). [Related pubchem assays (depositor defined):AID493008, AID493018, AID504382, AID504383]; format: protein-complex assay
Hexokinase HKDC1 = target: T4, Hexokinase HKDC1 (Homo sapiens, UniProt Q2TB90); assay: HKDC1 hexokinase activators, dose response, biochemical, W721R variant (AID 504730); format: functional
T4 sequence (Q2TB90 whole entry): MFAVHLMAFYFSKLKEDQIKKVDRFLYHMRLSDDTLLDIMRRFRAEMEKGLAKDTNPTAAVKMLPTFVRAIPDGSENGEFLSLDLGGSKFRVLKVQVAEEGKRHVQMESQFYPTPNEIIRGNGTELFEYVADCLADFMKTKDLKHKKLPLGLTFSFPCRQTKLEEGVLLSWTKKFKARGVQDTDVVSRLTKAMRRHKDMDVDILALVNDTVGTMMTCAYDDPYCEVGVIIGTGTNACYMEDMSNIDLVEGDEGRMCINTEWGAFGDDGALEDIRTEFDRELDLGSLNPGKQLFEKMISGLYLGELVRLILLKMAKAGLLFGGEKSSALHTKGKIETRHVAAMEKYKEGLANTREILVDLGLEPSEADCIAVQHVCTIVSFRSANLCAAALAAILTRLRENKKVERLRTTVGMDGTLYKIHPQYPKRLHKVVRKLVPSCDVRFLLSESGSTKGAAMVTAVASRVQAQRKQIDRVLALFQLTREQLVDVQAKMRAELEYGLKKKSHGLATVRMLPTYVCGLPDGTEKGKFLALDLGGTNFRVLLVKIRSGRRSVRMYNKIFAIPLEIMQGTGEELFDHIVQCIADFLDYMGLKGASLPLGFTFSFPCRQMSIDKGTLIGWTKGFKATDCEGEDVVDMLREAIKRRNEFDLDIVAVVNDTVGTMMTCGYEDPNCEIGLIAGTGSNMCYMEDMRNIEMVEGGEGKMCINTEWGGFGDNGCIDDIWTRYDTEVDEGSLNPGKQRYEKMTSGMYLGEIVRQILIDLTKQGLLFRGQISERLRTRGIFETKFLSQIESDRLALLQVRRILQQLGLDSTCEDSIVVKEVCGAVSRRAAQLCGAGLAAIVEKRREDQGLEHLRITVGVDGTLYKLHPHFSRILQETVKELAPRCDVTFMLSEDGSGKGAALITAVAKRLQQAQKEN

Hexokinase-1 = Hexokinase-1 (Homo sapiens, UniProt P19367); assay: hexokinase 1 activators, dose response, selectivity assay for HKDC1 activator project, biochemical (AID 504762); format: functional
[21] = target: T5, E3 ubiquitin-protein ligase XIAP (Homo sapiens, UniProt P98170); assay: XIAP antagonists, biochemical, IAP family, fluorescence polarization (AID 1018); format: functional
[22] = target: T5, E3 ubiquitin-protein ligase XIAP; assay: Counter Screen using XIAP-Bir3 for Chemical Antagonists of Bir1/2 domains of IAP-family anti-apoptotic proteins. [Related pubchem assays (depositor defined):AID1018, AID1449, AID1514, AID1638, AID1749, AID1750, AID488957, AID488963]
[23] = growth suppression of PTEN-null colon cells, dose response, cell-based, HCT116 PTEN knockout (AID 1047); format: functional;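 further: HCT116 colon tumor cells with PTEN knocked out; cells exposed to compound for 60 hours before readout; potency for loss of cell viability measured by luminescence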
[24] = growth suppression of beta-catenin-knockout colon cells, dose response, cell-based, HCT116, human colon tumor (AID 1045); format: functional;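 further: HCT116 colon tumor cells with beta catenin knocked out; cells exposed to compound for 60 hours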
[25] = target: Induced myeloid leukemia cell differentiation protein Mcl-1 (Homo sapiens, UniProt Q07820); format: functional
Induced myeloid leukemia cell differentiation protein Mcl-1, sequence (Q07820 whole entry): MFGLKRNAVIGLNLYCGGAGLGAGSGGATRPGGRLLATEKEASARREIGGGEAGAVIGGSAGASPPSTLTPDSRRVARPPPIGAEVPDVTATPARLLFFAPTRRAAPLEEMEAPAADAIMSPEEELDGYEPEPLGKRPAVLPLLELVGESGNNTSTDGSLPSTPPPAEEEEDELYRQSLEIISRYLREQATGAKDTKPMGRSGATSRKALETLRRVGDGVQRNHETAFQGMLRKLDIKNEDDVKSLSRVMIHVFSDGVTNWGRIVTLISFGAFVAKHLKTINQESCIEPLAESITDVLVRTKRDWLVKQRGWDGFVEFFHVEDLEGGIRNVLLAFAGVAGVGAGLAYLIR

T5 sequence (P98170 whole entry): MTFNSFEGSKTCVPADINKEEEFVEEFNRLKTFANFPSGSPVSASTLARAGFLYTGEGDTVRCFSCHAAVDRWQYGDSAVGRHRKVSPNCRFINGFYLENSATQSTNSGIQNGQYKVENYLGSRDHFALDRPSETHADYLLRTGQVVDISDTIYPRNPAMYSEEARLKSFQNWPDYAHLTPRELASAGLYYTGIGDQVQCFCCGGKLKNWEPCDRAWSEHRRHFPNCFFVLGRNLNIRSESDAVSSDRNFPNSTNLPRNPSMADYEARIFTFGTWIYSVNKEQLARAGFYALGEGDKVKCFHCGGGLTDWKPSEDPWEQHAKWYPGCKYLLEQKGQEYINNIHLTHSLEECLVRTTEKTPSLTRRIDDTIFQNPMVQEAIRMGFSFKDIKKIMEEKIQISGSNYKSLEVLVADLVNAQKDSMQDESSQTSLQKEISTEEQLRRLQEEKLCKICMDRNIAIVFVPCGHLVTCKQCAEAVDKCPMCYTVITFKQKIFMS
G-protein coupled receptor 55, sequence (Q9Y2T6 whole entry): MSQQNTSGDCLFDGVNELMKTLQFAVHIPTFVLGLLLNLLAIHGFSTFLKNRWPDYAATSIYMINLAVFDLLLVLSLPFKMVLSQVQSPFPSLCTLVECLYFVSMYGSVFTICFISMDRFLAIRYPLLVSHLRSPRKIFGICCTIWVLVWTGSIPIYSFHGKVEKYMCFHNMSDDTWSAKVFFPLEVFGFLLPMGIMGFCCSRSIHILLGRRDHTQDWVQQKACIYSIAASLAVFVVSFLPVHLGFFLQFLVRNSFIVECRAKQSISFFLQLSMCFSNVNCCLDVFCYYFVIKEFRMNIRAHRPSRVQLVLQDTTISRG
DNA dC->dU-editing enzyme APOBEC-3G, sequence (Q9HC16 whole entry): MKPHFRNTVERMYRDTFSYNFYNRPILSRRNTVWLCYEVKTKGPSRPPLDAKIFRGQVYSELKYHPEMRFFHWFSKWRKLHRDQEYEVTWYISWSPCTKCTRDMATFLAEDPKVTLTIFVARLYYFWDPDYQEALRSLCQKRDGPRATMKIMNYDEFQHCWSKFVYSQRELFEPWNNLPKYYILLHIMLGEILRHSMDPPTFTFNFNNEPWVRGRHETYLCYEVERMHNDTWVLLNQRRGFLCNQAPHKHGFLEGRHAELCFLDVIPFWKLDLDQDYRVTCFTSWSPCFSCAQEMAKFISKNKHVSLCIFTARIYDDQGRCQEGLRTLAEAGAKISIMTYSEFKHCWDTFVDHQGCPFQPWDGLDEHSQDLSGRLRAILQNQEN
T1 sequence (P11940 whole entry): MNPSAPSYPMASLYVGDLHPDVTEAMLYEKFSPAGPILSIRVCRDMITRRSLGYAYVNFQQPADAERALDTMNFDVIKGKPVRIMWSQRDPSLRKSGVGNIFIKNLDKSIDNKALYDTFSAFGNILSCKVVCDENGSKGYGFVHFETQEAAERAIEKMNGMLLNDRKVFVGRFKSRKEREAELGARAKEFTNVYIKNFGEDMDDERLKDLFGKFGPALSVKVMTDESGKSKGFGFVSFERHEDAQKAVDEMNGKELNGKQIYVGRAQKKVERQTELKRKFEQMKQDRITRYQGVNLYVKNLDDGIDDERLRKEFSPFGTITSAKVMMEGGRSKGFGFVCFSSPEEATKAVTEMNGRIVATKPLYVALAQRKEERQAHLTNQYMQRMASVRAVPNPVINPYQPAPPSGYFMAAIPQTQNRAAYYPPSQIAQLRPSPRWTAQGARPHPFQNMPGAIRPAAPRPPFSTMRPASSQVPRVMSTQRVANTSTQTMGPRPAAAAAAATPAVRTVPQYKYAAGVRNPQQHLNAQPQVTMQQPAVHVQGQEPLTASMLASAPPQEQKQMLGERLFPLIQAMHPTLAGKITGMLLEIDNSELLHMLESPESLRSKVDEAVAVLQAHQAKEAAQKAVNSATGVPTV
CAAX prenyl protease 1, sequence (P47154 whole entry): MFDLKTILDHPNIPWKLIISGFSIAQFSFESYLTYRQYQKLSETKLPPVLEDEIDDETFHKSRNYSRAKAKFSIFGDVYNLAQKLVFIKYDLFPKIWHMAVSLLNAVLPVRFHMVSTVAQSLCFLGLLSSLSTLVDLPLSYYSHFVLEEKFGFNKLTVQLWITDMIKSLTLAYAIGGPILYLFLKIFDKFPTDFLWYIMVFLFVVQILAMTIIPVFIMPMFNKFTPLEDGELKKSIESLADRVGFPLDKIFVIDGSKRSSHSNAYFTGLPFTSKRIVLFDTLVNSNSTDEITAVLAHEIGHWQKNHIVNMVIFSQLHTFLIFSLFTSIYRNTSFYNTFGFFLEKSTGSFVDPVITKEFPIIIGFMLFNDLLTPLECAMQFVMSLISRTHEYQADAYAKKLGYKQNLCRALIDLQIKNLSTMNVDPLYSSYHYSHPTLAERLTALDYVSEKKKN
Hexokinase-1, sequence (P19367 whole entry): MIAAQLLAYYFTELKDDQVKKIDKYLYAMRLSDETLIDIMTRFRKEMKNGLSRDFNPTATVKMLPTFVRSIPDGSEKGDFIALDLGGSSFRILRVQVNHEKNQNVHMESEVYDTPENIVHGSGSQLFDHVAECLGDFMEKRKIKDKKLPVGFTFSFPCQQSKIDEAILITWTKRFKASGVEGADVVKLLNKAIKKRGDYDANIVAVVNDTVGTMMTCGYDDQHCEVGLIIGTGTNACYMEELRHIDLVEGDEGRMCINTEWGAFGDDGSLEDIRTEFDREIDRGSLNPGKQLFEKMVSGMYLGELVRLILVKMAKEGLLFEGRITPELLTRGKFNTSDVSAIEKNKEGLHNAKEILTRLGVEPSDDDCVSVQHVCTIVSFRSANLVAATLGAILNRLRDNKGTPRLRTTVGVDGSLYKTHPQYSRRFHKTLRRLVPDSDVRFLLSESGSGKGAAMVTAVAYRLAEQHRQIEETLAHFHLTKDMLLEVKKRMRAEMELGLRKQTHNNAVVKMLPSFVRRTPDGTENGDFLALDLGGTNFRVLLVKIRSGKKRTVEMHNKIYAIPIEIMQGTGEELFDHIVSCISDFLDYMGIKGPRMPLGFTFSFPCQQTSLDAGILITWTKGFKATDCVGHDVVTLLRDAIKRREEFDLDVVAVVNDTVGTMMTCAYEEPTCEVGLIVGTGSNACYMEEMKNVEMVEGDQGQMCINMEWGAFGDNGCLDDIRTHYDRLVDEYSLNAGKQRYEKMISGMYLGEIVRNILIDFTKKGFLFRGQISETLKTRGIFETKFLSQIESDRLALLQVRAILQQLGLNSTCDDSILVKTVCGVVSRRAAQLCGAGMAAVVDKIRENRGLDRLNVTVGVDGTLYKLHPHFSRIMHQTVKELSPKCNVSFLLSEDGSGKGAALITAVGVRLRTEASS
FAD-linked sulfhydryl oxidase ALR, sequence (P55789 whole entry): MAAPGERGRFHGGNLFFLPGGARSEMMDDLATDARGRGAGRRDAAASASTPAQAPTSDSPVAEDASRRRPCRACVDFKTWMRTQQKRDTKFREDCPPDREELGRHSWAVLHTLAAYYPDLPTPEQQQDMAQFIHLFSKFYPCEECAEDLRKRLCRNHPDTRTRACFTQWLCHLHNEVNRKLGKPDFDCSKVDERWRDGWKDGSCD
Phosphomannomutase 2, sequence (O15305 whole entry): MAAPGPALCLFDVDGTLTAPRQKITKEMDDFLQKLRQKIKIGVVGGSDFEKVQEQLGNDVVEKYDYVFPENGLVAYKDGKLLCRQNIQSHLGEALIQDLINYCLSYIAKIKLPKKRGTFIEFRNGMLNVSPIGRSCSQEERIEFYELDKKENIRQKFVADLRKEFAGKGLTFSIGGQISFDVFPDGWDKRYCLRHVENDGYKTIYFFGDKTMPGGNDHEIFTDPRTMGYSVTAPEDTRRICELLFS
Glucose-6-phosphate 1-dehydrogenase, sequence (P11413 whole entry): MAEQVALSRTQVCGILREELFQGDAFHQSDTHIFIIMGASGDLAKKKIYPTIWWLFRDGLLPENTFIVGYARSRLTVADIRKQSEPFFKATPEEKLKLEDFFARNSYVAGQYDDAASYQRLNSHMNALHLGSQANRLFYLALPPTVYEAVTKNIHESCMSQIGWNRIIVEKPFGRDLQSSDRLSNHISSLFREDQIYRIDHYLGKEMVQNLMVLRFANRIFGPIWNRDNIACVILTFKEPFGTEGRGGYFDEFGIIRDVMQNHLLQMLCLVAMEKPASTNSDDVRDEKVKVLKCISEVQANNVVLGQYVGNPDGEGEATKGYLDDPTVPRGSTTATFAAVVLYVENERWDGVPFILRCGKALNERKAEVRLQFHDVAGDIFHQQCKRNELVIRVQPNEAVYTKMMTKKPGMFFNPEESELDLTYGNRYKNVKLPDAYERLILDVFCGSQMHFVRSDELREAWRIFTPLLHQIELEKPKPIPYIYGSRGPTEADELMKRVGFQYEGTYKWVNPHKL

For `Nc1nc2ccc(S(=O)(=O)N3CCCCC3)cc2s1`, the IC50 [1] was 13.9 µM (inactive), the IC50 [2] was > 66 µM (inactive) and the IC50 (Large T antigen) was 8.51 µM (active). For the same compound, the AC50 [3] was 3.3 µM (active) and the IC50 [4] was > 66 µM (inactive).

In the case of `Cc1ccnc(NS(=O)(=O)c2ccc(NC(=O)c3ccc([N+](=O)[O-])s3)cc2)n1`, the EC50 [5] is reported as > 60 µM (not active), the IC50 (cells) is reported as 6.24 µM (active) and the CC50 [6] is reported as 10.2 µM (active). The EC50 [7] was 0.967 µM (active), the CC50 [8] was > 20 µM (active) and the CC50 [9] was > 20 µM (active).

With `Sc1nnc(Nc2ccccc2Cl)s1` the IC50 [10] was > 100 µM (inactive), the IC50 [11] was > 50 µM (inactive) and the IC50 [12] was 54.8 µM (active). For the same compound, the IC50 (Phosphomannomutase 2) was > 100 µM (inactive).

In the case of `Cc1ccc(NC(=O)c2ccc(Cl)c(N3C(=O)C=CC3=O)c2)cc1`, the AC50 [13] is reported as 4.21 µM (active), the IC50 [10] is reported as 37.7 µM (active) and the IC50 (Beta-galactosidase) is reported as > 66.6 µM (inactive). The AC50 [14] was 1.6 µM (active), the AC50 [15] was 1.93 µM (active) and the AC50 [16] was 3.64 µM (active). The IC50 [17] was 48.8 µM (inactive), the AC50 [18] was 55.1 µM (active) and the AC50 [19] was 5.17 µM (active). The AC50 [20] was 9.79 µM (active).

With `CC1=C(C(=O)N2CCOCC2)C(c2ccccc2F)C2=C(O)CC(C)(C)CC2=N1` (stereo not drawn) the AC50 (CAAX prenyl protease 1) was 14.6 µM (active).

In the case of `CCn1c(Cn2nnc(-c3ccccc3)n2)nnc1SCc1ccc(Cl)c(Cl)c1`, the IC50 [1] is reported as 2.8 µM (active).

For `COc1cccc(-c2nnc(NC(=O)c3ccc(S(=O)(=O)N(CC(C)C)CC(C)C)cc3)o2)c1`, the IC50 (cells) was 16.3 µM (active), the IC50 (H9c2) was > 79 µM (inactive) and the CC50 [6] was 0.996 µM (active). The CC50 [8] was 2.37 µM (active), the CC50 [9] was 5.3 µM (active) and the AC50 (HEK293) was 8.51 µM (active).

With `COc1ccc(C)cc1NC(=O)C12CCC(C)(C(=O)O1)C2(C)C` (stereo not drawn) the EC50 (Troponin, cardiac muscle) was > 71.5 µM (inactive).

With `Cc1cc(C2=NN=C(Nc3ccc(S(=O)(=O)N4CCOCC4)cc3)SC2)c(C)n1CC1CCCO1` (stereo not drawn) the EC50 (Hexokinase HKDC1) was 31.2 µM (inactive) and the EC50 (Hexokinase-1) was 29.5 µM (inactive).

With `O=C(O)CCCNC(=O)c1cncc(Br)c1` the IC50 [21] was > 100 µM (not active) and the IC50 [22] was > 100 µM (inactive).

With `O=C(/C=C/c1ccco1)Nc1ccc2nn(-c3ccccc3)nc2c1` the EC50 [23] was 4.11 µM (active), the EC50 [24] was 4.53 µM (active) and the IC50 [25] was 5.43 µM (active). For the same compound, the IC50 [21] was > 100 µM (not active) and the IC50 [22] was > 100 µM (inactive).
